Assay in all cases: Kinase selectivity, scanMAX Kinase assay panel (DiscoverX), % control at 1 uM
Common to all, as to assay type: binding

Assay [1] addresses T1, scanMAX Kinase assay panel (Homo sapiens, UniProt P15735).
T1 construct: purchased DiscoverX
T1 sequence (P15735 1-406): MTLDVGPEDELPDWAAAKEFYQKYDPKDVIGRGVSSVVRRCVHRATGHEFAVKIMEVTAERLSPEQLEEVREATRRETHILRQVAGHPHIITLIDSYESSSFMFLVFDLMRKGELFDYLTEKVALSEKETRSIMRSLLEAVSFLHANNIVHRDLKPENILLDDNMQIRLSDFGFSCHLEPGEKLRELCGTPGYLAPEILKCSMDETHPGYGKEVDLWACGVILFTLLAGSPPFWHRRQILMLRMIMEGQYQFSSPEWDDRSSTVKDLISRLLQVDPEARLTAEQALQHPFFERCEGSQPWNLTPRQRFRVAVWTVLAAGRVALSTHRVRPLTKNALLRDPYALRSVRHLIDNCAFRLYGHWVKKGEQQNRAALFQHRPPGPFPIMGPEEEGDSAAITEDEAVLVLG
The settings on record: PHKG2; 1 uM; read-out: Percent Control (%). In short, it runs like this: (§1)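 Activity was called for kinases showing % control under 35, calculated from compound signal relative to positive and negative controls. Each compound screened at 1 uM against the DiscoverX scanMAX panel.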

Assay [2] has as its target T2, scanMAX Kinase assay panel (Homo sapiens, UniProt P22694).
T2 construct: purchased DiscoverX
The settings on record: PKAC-beta; 1 uM; read-out: Percent Control (%). In short, it runs like this: as §1

In assay [3] the target is T3, scanMAX Kinase assay panel (Homo sapiens, UniProt P53355).
T3 construct: purchased DiscoverX
The settings on record: DAPK1; 1 uM; read-out: Percent Control (%). The essentials:
as §1

Assay [4] deals with T4, scanMAX Kinase assay panel (Homo sapiens, UniProt Q06418).
T4 construct: purchased DiscoverX
T4 sequence (Q06418 41-890): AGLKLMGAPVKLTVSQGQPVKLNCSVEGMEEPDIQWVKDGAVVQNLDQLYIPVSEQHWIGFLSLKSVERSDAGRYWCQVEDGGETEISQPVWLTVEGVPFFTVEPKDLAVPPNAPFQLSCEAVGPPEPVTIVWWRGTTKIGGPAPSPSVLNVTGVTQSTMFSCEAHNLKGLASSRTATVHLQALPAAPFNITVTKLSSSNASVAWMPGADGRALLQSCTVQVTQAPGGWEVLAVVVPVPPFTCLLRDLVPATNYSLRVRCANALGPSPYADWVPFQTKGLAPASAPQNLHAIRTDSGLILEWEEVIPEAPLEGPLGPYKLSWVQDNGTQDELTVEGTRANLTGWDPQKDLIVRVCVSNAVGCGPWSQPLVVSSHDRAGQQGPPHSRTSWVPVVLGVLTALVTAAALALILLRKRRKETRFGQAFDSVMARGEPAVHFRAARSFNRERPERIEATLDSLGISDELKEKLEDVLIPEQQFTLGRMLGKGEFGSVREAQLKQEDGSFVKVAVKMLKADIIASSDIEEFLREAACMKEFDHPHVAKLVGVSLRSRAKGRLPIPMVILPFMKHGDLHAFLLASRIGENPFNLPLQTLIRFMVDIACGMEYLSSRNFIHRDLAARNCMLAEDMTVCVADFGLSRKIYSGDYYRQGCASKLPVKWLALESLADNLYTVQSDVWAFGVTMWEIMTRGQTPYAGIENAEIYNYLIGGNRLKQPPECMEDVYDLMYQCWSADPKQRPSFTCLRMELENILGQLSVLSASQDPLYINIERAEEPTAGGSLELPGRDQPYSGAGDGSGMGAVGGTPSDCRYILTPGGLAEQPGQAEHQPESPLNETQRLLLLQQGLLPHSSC
The settings on record: TYRO3; 1 uM; read-out: Percent Control (%). The essentials: as §1

For assay [5], the target named is T5, scanMAX Kinase assay panel (Homo sapiens, UniProt Q96Q40).
T5 construct: purchased DiscoverX
The settings on record: PFTAIRE2; 1 uM; read-out: Percent Control (%). The essentials: as §1

Assay [6] has as its target T6, scanMAX Kinase assay panel (Homo sapiens, UniProt Q9NWZ3).
T6 construct: purchased DiscoverX
T6 sequence (Q9NWZ3 1-460): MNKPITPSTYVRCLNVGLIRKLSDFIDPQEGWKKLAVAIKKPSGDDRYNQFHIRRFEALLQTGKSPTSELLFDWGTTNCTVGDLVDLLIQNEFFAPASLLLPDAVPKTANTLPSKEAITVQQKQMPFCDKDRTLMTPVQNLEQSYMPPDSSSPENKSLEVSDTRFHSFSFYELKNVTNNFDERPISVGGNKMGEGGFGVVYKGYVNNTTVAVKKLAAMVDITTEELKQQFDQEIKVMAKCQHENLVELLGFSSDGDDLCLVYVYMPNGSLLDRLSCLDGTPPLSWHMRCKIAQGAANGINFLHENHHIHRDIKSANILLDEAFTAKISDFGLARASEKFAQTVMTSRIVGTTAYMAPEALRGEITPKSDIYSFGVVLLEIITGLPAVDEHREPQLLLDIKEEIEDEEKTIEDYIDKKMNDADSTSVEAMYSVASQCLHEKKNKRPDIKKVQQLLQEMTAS
The settings on record: IRAK4; 1 uM; read-out: Percent Control (%). The essentials:
as §1

Assay [7] deals with scanMAX Kinase assay panel. The following applies: 1 uM. The essentials:
as §1

T5 sequence (Q96Q40 whole entry): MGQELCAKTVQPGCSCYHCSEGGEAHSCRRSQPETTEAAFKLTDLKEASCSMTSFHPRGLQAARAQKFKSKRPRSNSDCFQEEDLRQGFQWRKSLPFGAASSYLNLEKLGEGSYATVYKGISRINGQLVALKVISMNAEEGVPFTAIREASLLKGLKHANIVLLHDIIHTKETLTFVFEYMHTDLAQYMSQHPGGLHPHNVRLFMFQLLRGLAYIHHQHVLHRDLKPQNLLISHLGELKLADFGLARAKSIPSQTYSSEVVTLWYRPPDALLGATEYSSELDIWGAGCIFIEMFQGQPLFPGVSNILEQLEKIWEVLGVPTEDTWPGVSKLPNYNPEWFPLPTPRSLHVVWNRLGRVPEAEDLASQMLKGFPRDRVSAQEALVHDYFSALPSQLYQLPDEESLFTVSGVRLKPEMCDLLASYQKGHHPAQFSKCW
T3 sequence (P53355 whole entry): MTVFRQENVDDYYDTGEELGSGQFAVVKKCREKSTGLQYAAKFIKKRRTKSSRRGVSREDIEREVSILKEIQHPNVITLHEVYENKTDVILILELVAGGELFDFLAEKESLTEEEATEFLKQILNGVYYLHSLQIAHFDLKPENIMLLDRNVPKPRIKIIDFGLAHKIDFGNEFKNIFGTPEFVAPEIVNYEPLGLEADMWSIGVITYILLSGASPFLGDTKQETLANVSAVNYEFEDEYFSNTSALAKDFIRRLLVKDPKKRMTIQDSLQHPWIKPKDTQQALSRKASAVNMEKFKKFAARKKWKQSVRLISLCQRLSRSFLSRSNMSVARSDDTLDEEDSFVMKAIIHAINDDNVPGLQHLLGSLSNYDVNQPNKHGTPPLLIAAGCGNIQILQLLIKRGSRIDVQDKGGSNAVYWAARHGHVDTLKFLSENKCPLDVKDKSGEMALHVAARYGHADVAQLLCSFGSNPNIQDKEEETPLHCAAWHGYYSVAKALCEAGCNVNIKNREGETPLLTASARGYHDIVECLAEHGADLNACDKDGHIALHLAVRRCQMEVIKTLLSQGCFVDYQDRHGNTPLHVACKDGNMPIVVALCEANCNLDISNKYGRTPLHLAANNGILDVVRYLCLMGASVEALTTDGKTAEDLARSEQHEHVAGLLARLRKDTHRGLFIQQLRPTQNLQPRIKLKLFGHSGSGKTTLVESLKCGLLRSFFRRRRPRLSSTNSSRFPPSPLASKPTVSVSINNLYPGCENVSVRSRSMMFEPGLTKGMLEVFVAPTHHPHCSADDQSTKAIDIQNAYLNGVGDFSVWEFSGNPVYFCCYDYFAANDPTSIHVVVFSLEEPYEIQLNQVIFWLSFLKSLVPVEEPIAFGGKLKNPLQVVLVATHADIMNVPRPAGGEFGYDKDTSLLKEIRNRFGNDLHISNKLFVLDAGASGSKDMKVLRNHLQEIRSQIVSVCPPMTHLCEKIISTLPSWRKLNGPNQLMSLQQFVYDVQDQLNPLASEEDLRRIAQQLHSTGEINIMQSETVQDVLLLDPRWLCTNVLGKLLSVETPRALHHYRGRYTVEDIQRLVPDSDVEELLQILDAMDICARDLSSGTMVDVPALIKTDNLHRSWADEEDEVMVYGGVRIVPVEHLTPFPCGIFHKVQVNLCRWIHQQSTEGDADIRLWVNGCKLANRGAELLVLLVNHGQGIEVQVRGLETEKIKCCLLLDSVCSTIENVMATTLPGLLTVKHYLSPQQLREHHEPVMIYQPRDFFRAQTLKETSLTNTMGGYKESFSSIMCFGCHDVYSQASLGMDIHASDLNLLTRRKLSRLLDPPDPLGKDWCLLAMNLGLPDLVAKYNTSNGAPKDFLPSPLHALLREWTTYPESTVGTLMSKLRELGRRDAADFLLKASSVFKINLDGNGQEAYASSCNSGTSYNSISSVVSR

Take `Cc1ccc(C(=O)Nc2ccc(CN3CCN(C)CC3)c(C(F)(F)F)c2)cc1C#Cc1cnc2c(Nc3cnn(C)c3)cccn12` [Example 1, 4-methyl-3-((8-((1-methyl-1H-pyrazol-4-yl)amino)imidazo[1,2-a]pyridin-3-yl)ethynyl)-N-(4-((4-methylpiperazin-1-yl)methyl)-3-(trifluoromethyl)phenyl)benzamide]: the remaining binding at 1 µM in assay [1] was determined as 72%; in assay [2] it was 34%; in assay [3], 87%; in assay [4], 21%; in assay [5], 6%; in assay [6], 22%. The “Percent Control (%)” value is 3% in assay [7] (EGFR (L747-E749del, A750P)); 1% in assay [7] (EGFR (L747-S752del, P753S)); 2% in assay [7] (EGFR (L747-T751del, Sins)); 1% in assay [7] (FLT3 (ITD)); 20% in assay [7] (FLT3 (ITD, D835V)); 2% in assay [7] (FLT3 (ITD, F691L)).

As to `Cc1ccc(NC(=O)C2(C(=O)Nc3ccc(F)cc3)CC2)cc1C#Cc1cnc2c(Nc3cnn(C(C)C)c3)cccn12` [Example 78], the remaining binding at 1 µM in assay [1] stood at 100%; in assay [2], 98%; in assay [3], 98%; in assay [4], 95%; in assay [5], 100%; in assay [6], 100%. For the same compound, the “Percent Control (%)” value is recorded as 100% in assay [7] (EGFR (L747-E749del, A750P)); 87% in assay [7] (EGFR (L747-S752del, P753S)); 100% in assay [7] (EGFR (L747-T751del, Sins)); 71% in assay [7] (FLT3 (ITD)); 35% in assay [7] (FLT3 (ITD, D835V)); 31% in assay [7] (FLT3 (ITD, F691L)).

With `Cc1cn(-c2cc(NC(=O)c3ccc(C)c(C#Cc4cnc5c(Nc6cnn(C)c6)cccn45)c3)cc(C(F)(F)F)c2)cn1` [Example 12, 4-methyl-N-(3-(4-methyl-1H-imidazol-1-yl)-5-(trifluoromethyl)phenyl)-3-((8-((1-methyl-1H-pyrazol-4-yl)amino)imidazo[1,2-a]pyridin-3-yl)ethynyl)benzamide], the remaining binding at 1 µM in assay [1] amounted to 89%; in assay [2], 87%; in assay [3] it was 80%; in assay [4], 42%; in assay [5], 75%; in assay [6] it was 81%. Further, the “Percent Control (%)” value in assay [7] (EGFR (L747-E749del, A750P)) came out at 5%; in assay [7] (EGFR (L747-S752del, P753S)), 6%; in assay [7] (EGFR (L747-T751del, Sins)), 6%; in assay [7] (FLT3 (ITD)) it was 4%; in assay [7] (FLT3 (ITD, D835V)) it was 100%; in assay [7] (FLT3 (ITD, F691L)), 45%.

The record behind these values is US10870647B2, “Imidazopyridine derivative, method for preparing same, and pharmaceutical composition containing same as active ingredient for preventing or treating cancer” (DAEGU-GYEONGBUK MEDICAL INNOVATION FOUNDATION, priority 2016, dated 2020).
